Source: patent publication US6380396B1, “Quaternary ammonium compounds” (Pfizer Inc., priority 1997, dated 2002)

Assays:
human NK1 receptor = target: T1, human NK1 receptor (Homo sapiens, UniProt P25103); experiment: inhibition of [3H]-Substance P binding to membranes from human IM9 cell line
T1 construct: membranes prepared from the human IM9 cell line expressing the human NK1 receptor; endogenous in cells; host or cells: human IM9 cell line (membranes)
Description: The affinity of the compounds of the formula (I) for the human NK1 receptor can be determined in vitro by determining their ability to inhibit [^3H]-Substance P binding to membranes prepared from the human IM9 cell line expressing the human NK1 receptor using a modification of the method described in McLean, S. et al, J. Pharm.Exp.Ther., 267, 472-9 (1993) in which whole cells were used.

human NK2 receptor = target: T2, human NK2 receptor (Homo sapiens, UniProt P21452); experiment: competition with [3H]-NKA for binding to membranes from Chinese hamster ovary cells expressing the cloned receptor; settings: CHO cell membranes, 90 min, 25° C.
T2 construct: expressed in transfected cells; host or cells: Chinese hamster ovary cells (membranes)
T2 sequence (P21452 1-398): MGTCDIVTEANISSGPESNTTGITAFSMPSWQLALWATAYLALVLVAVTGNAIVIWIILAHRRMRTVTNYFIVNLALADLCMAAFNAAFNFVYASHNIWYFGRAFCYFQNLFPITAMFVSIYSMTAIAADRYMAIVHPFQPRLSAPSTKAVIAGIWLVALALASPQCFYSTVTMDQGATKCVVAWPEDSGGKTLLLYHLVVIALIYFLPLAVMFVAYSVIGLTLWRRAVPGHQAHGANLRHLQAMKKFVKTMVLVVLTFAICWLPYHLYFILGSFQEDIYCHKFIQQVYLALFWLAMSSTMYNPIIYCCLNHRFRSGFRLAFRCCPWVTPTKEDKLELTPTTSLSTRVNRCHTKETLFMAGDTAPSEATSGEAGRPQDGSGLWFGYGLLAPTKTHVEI
Method: The affinity of the compounds of formula (I) for the human NK2 receptor can be determined in vitro by determining their ability to compete with [^3H]-NKA (neurokinin A) for binding to membranes prepared from Chinese hamster ovary cells expressing the cloned human NK2 receptor. In this method, washed Chinese hamster ovary cell membranes are prepared as described for the previous method where IM9 cells are used instead. The membranes are incubated (90 min, 25° C.) with [^3H]-NKA and with a range of concentrations of the test compound. Non-specific binding is determined in the presence of 10 μM NKA.

T1 sequence (P25103 whole entry): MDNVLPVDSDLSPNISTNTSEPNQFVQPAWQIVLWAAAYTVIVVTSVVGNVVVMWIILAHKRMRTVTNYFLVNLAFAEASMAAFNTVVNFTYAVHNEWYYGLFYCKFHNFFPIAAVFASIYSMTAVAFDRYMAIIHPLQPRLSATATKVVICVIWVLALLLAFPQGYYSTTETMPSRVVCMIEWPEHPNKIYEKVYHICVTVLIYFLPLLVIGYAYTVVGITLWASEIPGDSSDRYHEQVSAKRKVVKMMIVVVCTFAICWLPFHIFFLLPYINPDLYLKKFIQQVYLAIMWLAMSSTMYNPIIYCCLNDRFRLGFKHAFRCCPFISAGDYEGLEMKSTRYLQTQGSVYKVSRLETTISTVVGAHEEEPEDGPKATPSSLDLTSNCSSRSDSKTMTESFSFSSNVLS

SMILES	IC50 (human NK1 receptor) [nM]	IC50 (human NK2 receptor) [nM]
O=C(c1cccc2c1CCCC2)c1nccn1C[C@@H](CC[N+]12CCC(c3ccccc3)(CC1)CC2)c1ccc(Cl)c(Cl)c1 [Example 18, 4-Phenyl-1-(3(S)-[3,4-dichlorophenyl]-4-[2-(1,2,3,4-tetrahydro-5-naphthoyl)imidazol-1-yl]butyl)quinuclidinium methanesulphonate]	123	3
Cc1cccc(C(=O)c2nccn2CC(CC[N+]23CCC(c4ccccc4)(CC2)CC3)c2ccc(Cl)c(Cl)c2)c1C (stereo not shown) [Example 2]	0.6	4
O=C(c1cccc2c1CCCC2)c1nccn1C[C@H](CC[N+]12CCC(c3ccccc3)(CC1)CC2)c1ccc(Cl)c(Cl)c1 [Example 19, 4-Phenyl-1-(3(R)-[3,4-dichlorophenyl]-4-[2-(1,2.3,4-tetrahydro-5-naphthoyl)imidazol-1-yl]butyl)quinuclidinium methanesulphonate]	2	24
O=C(c1ccc2ccccc2c1)c1nccn1CC(CC[N+]12CCC(c3ccccc3)(CC1)CC2)c1ccc(Cl)c(Cl)c1 (stereo not shown) [Example 6]	9	96
O=C(c1cccc2c1OCC2)c1nccn1CC(CC[N+]12CCC(c3ccccc3)(CC1)CC2)c1ccc(Cl)c(Cl)c1 (stereo not shown) [Example 5]	8	11
